Patent publication US20240116889A1, “ANTIVIRAL COMPOUNDS AND METHODS” (priority 2019, published 2024)
Entries after “also recorded” stand apart in the source; their conditions may differ.

Tests used:
SARS-CoV-2 = SARS-CoV-2 replication in NHBE cells (RT-qPCR of media); format: cell-based
A549 cells = assay: Cell viability of A549 cells (CellTiter-Glo 2.0); format: cell-based, human; details: RDV continuous, TG 30 min, overnight
Method: (A) A549 cells were primed with indicated TG, 0.3 μM RDV or DMSO control for 30 min, washed twice with PBS and infected with 0.01 MOI of CoV OC43 for 2 h, after which cells were washed again with PBS and incubated in fresh infection media (OptiMEM supplemented with 0.1 μg/ml TPCK-trypsin for TG primed cells, or fresh media in the continuous presence of RDV. At 24, 48 and 72 hpi, viral RNA extraction was performed on collected supernatants followed by one-step reverse transcription qPCR to detect the relative copy number of hCoV OC43 replicase polyprotein lab RNA, based on relative Ct method. Indicated significance relative to corresponding RDV-treated cells based on 2-way ANOVA Tukey's multiple comparisons test. (B) As in (A), A549 cells were primed continuously with RDV, or for 30 min with indicated TG or DMSO, washed, cultured overnight and subjected to cell viability assay (CellTiter-Glo 2.0 Cell Viability Assay, Promega).

human coronavirus OC43 = format: cell-based; details: MRC-5 cells
[1] = test system: RSV (A2 strain, ATCC VR-1540); assay: RSV production from infected HEp2 cells (immuno-detection / RT-qPCR); format: cell-based, human respiratory syncytial virus

C/C=C(/C)C(=O)O[C@H]1C(C)=C2[C@H]([C@@H]1OC(=O)CCCCCCC)[C@@](C)(OC(C)=O)C[C@H](OC(=O)CCC)[C@@]1(O)[C@H]2OC(=O)[C@@]1(C)O [TG, thapsigargin]
SARS-CoV-2 replication (SARS-CoV-2): highly inhibitory | cell viability after priming (NPTr cells; 30 min priming at doses used for infection studies): no cytotoxic effect on cell viability | CC50 (NPTr cells; 30 min priming, viability after 24 h): 56.6 µM | cell viability of primed cells, infected or uninfected (NPTr cells; primed once with 0.5 μM TG for 30 min, over 20 h): more viable than DMSO control cells | cell viability (A549 cells): no adverse effect on cell viability | hCoV OC43 replication / progeny production (human coronavirus OC43; TG 0.05 or 0.5 μM 30 min pre-infection, HC pre-infection or continuous): dramatic dose-responsive reduction in coronavirus replication | cell loss and cytopathic effects of infected cells (human coronavirus OC43; TG-primed): limited cell loss and little morphological change | RSV replication, priming 24 h before or 24 h post-infection ([1]; HEp2 cells, 30 min TG priming, 72 h infection): strongly inhibited RSV replication | RSV production, TG priming 48 h post-infection ([1]; HEp2 cells, 30 min priming): rapidly effective in blocking virus production at 48 h post-infection | duration of sustained anti-viral effect on RSV ([1]; HEp2 cells, 30 min priming): over 48 h | Selectivity index ([1]; HEp-2 cells, 3 d infection period): 1346.499 | IC50 ([1]; HEp-2 cells, RSV, 3 d infection period): 0.0668 µM | RSV progeny virus production, viral M-gene RNA ([1]; HEp-2 cells, TG 30 min priming, Riba continuously present, four days post-infection): superior to the continuous presence of ribavirin; also recorded: significantly inhibited
